Results taken from ChEMBL document CHEMBL5576084, “Development of chromone-thiazolidine-2,4-dione Knoevenagel conjugates as apoptosis inducing agents” (Bioorg Med Chem Lett, 2024).

Key:
[1] = system: HCT-116; test: Cytotoxicity against human HCT-116 cells assessed as inhibition of cell growth incubated for 48 hrs by MTT assay; type: functional, cell-based; conditions: HCT-116, 48 h
[2] = system: MCF7; test: Cytotoxicity against human MCF7 cells assessed as inhibition of cell growth incubated for 48 hrs by MTT assay; type: functional, cell-based; conditions: MCF7, 48 h
[3] = Cytotoxicity against HEK293 cells assessed as inhibition of cell growth incubated for 48 hrs by MTT assay; type: toxicity, cell-based; conditions: human
[4] = system: SK-MEL-28; test: Cytotoxicity against human SK-MEL-28 cells assessed as inhibition of cell growth incubated for 48 hrs by MTT assay; type: functional, cell-based; conditions: SK-MEL-28, 48 h
[5] = system: HepG2; test: Cytotoxicity against human HepG2 cells assessed as inhibition of cell growth incubated for 48 hrs by MTT assay; type: functional, cell-based; conditions: HepG2, 48 h
[6] = system: A549; test: Cytotoxicity against human A549 cells assessed as inhibition of cell growth incubated for 48 hrs by MTT assay; type: functional, cell-based; conditions: A549, 48 h

SMILES	IC50 [1] [µM]	IC50 [2] [µM]	IC50 at 48 h [3] [µM]	IC50 [4] [µM]	IC50 [5] [µM]	IC50 [6] [µM]
O=C(CN1C(=O)S/C(=C\c2coc3cc(F)ccc3c2=O)C1=O)c1ccc(Cl)cc1	> 10	> 10	13.4	> 10	> 10	> 10
Cc1ccc(C(=O)CN2C(=O)S/C(=C\c3coc4ccccc4c3=O)C2=O)cc1	> 10	> 10	28.2	> 10	> 10	8.7
N#Cc1ccc(C(=O)CN2C(=O)S/C(=C\c3coc4ccccc4c3=O)C2=O)cc1	> 10	> 10	27.8	> 10	> 10	8.8
Cc1ccc(C(=O)CN2C(=O)S/C(=C\c3coc4cc(F)ccc4c3=O)C2=O)cc1	> 10	> 10	16.6	> 10	> 10	> 10
Cc1ccc2occ(/C=C3\SC(=O)N(CC(=O)c4ccccc4)C3=O)c(=O)c2c1	> 10	> 10	13.6	> 10	> 10	> 10
Cc1ccc(C(=O)CN2C(=O)S/C(=C\c3coc4ccc(C)cc4c3=O)C2=O)cc1	> 10	> 10	14.1	> 10	> 10	8.2
COc1ccc(C(=O)CN2C(=O)S/C(=C\c3coc4ccccc4c3=O)C2=O)cc1	> 10	> 10	168	> 10	> 10	8.8
O=C(CN1C(=O)S/C(=C\c2coc3ccccc3c2=O)C1=O)c1ccc(Cl)cc1	> 10	8.7	25	> 10	12.3	> 10
O=C(CN1C(=O)S/C(=C\c2coc3ccccc3c2=O)C1=O)c1ccc(Br)cc1	> 10	> 10	21.1	> 10	> 10	7.8
O=C(CN1C(=O)S/C(=C\c2coc3cc(Br)ccc3c2=O)C1=O)c1ccc(Br)cc1	> 10	> 10	23.6	> 10	> 10	> 10
O=C(CN1C(=O)S/C(=C\c2coc3ccccc3c2=O)C1=O)c1ccccc1	> 10	> 10	17.5	> 10	> 10	> 10
O=C(CN1C(=O)S/C(=C\c2coc3ccccc3c2=O)C1=O)c1ccc(Cl)c(Cl)c1	> 10	9.1	19.6	> 10	> 10	> 10
O=C(CN1C(=O)S/C(=C\c2coc3cc(Br)ccc3c2=O)C1=O)c1ccccc1	> 10	> 10	21.1	> 10	> 10	8.8
Cc1ccc2occ(/C=C3\SC(=O)N(CC(=O)c4ccc(Br)cc4)C3=O)c(=O)c2c1	> 10	> 10	16.5	9.1	> 10	> 10
O=C(CN1C(=O)S/C(=C\c2coc3cc(Br)ccc3c2=O)C1=O)c1ccc(Cl)cc1	> 10	> 10	18.1	> 10	> 10	8.4
Cc1ccc2occ(/C=C3\SC(=O)N(CC(=O)c4ccc(Cl)cc4)C3=O)c(=O)c2c1	> 10	8.9	15.2	> 10	> 10	6.3
Cc1ccc2occ(/C=C3\SC(=O)N(CC(=O)c4ccc(F)cc4)C3=O)c(=O)c2c1	> 10	> 10	15.2	> 10	> 10	> 10
